Assay results: patent US20080269343A1, “GALENIC FORMULATIONS OF ORGANIC COMPOUNDS” (priority 2004, published 2008)

Legend:
[1] = Ranges of arithmetic mean plasma pharmacokinetic parameters provided by the 300 mg solid oral dosage form (summary of the studies); type: in vivo; conditions: human, range of study means
Procedure: (§1) For example, the present invention provides a solid oral dosage form comprising about 300 mg of aliskiren free base, or a respective amount of a pharmaceutically acceptable salt thereof, and a carrier medium, said dosage form providing an arithmetic mean maximum plasma concentration of aliskiren ranging from about 186 to about 394 ng/mL between about 0.25 and about 6 hours following administration of a single dosage of said dosage form.
as §1, with “Furthermore,” for “For example,”, “mg” for “mg of”, “AUC0-96” for “maximum plasma concentration”, “1480” for “186”, “1859 ng·h/mL” for “394 ng/mL between about 0.25 and about 6 hours”, “form. […]” for “form.”
The above description fully discloses the invention including preferred embodiments thereof. […] Arithmetic means for Cmax are calculated using the actual time points when the Cmax is observed whereas for the mean concentration versus time plots the nominal time values are employed.

[2] = Steady-state pharmacokinetics of aliskiren 300 mg alone, furosemide interaction study, Day 13 (Example 6); type: in vivo, human; conditions: 300 mg daily, Day 13, healthy volunteers N 21; for AUC / Cmax / Tmax: both sexes, human, in vivo, oral, 300 mg
Procedure: An open-label, 2-period study in healthy subjects was carried out to evaluate the pharmacokinetic drug-drug interaction between furosemide and aliskiren when given alone or in combination. A total of 22 healthy male and female volunteers enrolled and 21 completed all study procedures and treatments. The subjects were admitted to the study center for at least 12 hours prior to the initial dosing for baseline evaluation, and confined to the clinic for entire study. Subjects were given an end-of-study evaluation on Day 17 approximately 24 h after the last treatment of aliskiren. For all treatment periods, subjects fasted for a minimum of 10 hours pre-dose to 4 hours post-dose. Subjects were considered to have completed the study when all safety and pharmacokinetic evaluations had been completed.
In Period 1 (Study Days 1-3), subjects received a single 20 mg daily dose of furosemide. In Period 2 (Study Days 7-16), subjects received 300 mg of aliskiren once a day for a total of 10 days with a single 20 mg daily dose of furosemide co-administered for three days (Study Days 14-16), starting Day 14 of the study. There was a three day wash out between Period 1 and 2 (Study Days 4-6).
Pharmacokinetic blood sampling for aliskiren alone occurred on Study Day 13 up to 24 hours post-dose (5-mL blood samples were collected into lithium heparin tubes on Day 13 of the study at pre-dose, 0.5, 1, 2, 4, 6, 8, 12, 16 and 24 hours after dosing).

[3] = Single-dose four-period crossover pharmacokinetic study of 75, 150, 300 and 600 mg aliskiren (dosage form 3) in healthy volunteers (Example 3); type: in vivo; conditions: human, plasma; for Cmax / AUC(0-t) / AUC(0-inf): arithmetic mean (SD); for AUC(0-t): read-out: AUC0-96; for Tmax: median, dosage form 3, healthy subjects n = 30, fasted
Procedure: An open-label, single-dose, four-period, four-treatment, randomized crossover study with a 7-day washout between each period to compare the plasma concentrations of 75, 150, 300 and 600 mg of aliskiren (dosage form 3) in healthy volunteers was carried out. A total of 32 healthy subjects enrolled and 30 completed all study procedures and treatments. Subjects were screened during a 21-Day period and, if eligible, proceeded to a baseline visit prior to each treatment (four baseline evaluations in total). There was an end of study evaluation prior to discharge from the study site. Subjects were randomized into 4 dosing sequence groups with 8 subjects per sequence. The subjects were admitted to the study center at least 12 hours prior to the initial dosing in each period for baseline evaluations, and were confined to the clinic for at least 48 h post-dose in each period. Following an inter-dose interval of at least 7 days, each subject returned to the study site to receive the alternate treatment as per their randomization schedule. All subjects received each of the 75, 150, 300 and 600 mg treatments once during the study according to a randomization schedule. Plasma samples for determination of aliskiren were obtained over 96 hour period after the dose in each treatment segment. For all treatment periods, subjects fasted for a minimum of 10 hours pre-dose to 4 hours post-dose. Subjects were considered to have completed the study when all safety and pharmacokinetic evaluations had been completed.
Blood samples were collected to determine the pharmacokinetics following a single oral dose of 75, 150, 300 or 600 mg of aliskiren. Plasma concentrations of aliskiren were used to determine the pharmacokinetic parameters using non-compartmental methods, and the data are summarized in FIGS. 1, 2, and 3, and Table 1.

[4] = single oral dose 75 mg, healthy subjects n = 30
[5] = single oral dose 150 mg, healthy subjects n = 30
[6] = single oral dose 300 mg, healthy subjects n = 30
[7] = single oral dose 600 mg, healthy subjects n = 30

- AUC ([1]; about 300 mg every 24 hours, steady state, read-out: arithmetic mean AUC0-τ of aliskiren): 1670 to 2520 ng·h/mL
- AUC(0-t) ([1]; single dosage of about 300 mg free base, read-out: arithmetic mean AUC0-96 of aliskiren): 1480 to 1860 ng·h/mL
- AUCτ ([2]; Max): 3973 ng·h/mL
- Cmax^SS ([2]; Max): 652 ng/mL
- Cmin^SS ([2]; Max): 52.30 ng/mL
- tmax^SS ([2]; Max): 6.0 h
- Cmin^SS ([2]; Median): 24.40 ng/mL
- AUCτ ([2]; Min): 471 ng·h/mL
- Cmax^SS ([2]; Min): 116 ng/mL
- Cmin^SS ([2]; Min): 6.26 ng/mL
- tmax^SS ([2]; Min): 0.5 h
- Cmin^SS ([2]; arithmetic mean): 25.80 ng/mL
- AUC ([2]; Median): 1810 ng·h/mL
- Cmax ([2]; Median): 284 ng/mL
- Tmax ([2]; Median): 1 h
- AUC ([2]; arithmetic mean): 1890 ng·h/mL
- Cmax ([2]; arithmetic mean): 334 ng/mL
- Tmax ([2]; arithmetic mean): 1.5 h
- Cmax [3, 4]: 26 ng/mL
- AUC(0-t) [3, 4]: 266 ng·h/mL
- AUC(0-inf) ([3]; single oral dose 75 mg, healthy subjects, n = 23): 356 ng·h/mL
- Cmax [3, 5]: 72 ng/mL
- AUC(0-t) [3, 5]: 530 ng·h/mL
- AUC(0-inf) ([3]; single oral dose 150 mg, healthy subjects, n = 29): 627 ng·h/mL
- AUC(0-inf) [3, 6]: 1620 ng·h/mL
- Cmax [3, 6]: 202 ng/mL
- AUC(0-t) [3, 6]: 1480 ng·h/mL
- AUC(0-inf) [3, 7]: 3520 ng·h/mL
- Cmax [3, 7]: 420 ng/mL
- AUC(0-t) [3, 7]: 3240 ng·h/mL
- Tmax ([3]; single oral dose 75 mg): 1 h
- Tmax ([3]; single oral dose 150 mg): 2.5 h
- Tmax ([3]; single oral dose 300 mg): 3 h
- Tmax ([3]; single oral dose 600 mg): 2 h
SMILES: COCCCOc1cc(C[C@@H](C[C@H](N)[C@@H](O)C[C@H](C(=O)NCC(C)(C)C(N)=O)C(C)C)C(C)C)ccc1OC [aliskiren, 2(S),4(S),5(S),7(S)—N-(3-amino-2,2-dimethyl-3-oxopropyl)-2,7-di(1-methylethyl)-4-hydroxy-5-amino-8-[4-methoxy-3-(3-methoxy-propoxy)phenyl]-octanamide]
